Measurements from ChEMBL document CHEMBL1909637, “Structure-activity relationship and enzyme kinetic studies on 4-aryl-1H-1,2,3-triazoles as indoleamine 2,3-dioxygenase (IDO) inhibitors” (Eur J Med Chem, 2011).
Blank lines part the entries; values can stand above or below the molecule they belong to. Activity calls are given as the source filed them. The rule behind the calls is not given here.

How the values were obtained:
[1] = molecular target: T1, Indoleamine 2,3-dioxygenase 1 (Homo sapiens, UniProt P14902); assay: Inhibition of human recombinant indoleamine-2,3-dioxygenase expressed in Escherichia coli BL21 using L-tryptophan as substrate after 30 mins by microplate reader analysis
Target sequence in this assay (P14902 whole entry): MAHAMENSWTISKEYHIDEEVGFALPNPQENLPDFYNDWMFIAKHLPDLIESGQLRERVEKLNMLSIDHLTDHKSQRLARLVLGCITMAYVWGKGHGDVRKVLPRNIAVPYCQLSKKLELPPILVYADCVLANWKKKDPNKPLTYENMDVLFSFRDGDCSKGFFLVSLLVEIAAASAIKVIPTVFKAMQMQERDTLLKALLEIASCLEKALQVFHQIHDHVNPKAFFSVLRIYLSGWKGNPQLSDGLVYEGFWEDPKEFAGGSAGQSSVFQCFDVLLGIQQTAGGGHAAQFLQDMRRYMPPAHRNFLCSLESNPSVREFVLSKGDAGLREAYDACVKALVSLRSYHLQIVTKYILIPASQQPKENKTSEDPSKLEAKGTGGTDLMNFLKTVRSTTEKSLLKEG

[2] = molecular target: T1, Indoleamine 2,3-dioxygenase 1; assay: Reversal inhibition of human recombinant indoleamine-2,3-dioxygenase expressed in Escherichia coli BL21 using L-tryptophan as substrate by Dixon plot analysis
Target sequence in this assay (P14902 whole entry, looked up): as the sequence (P14902 whole entry) above

T-cell [3] = assay: Induction of BALB/c mouse LLC-stimulated T cell proliferation after 4 days by WST-1 method; type: functional, cell-based
[4] = molecular target: T1, Indoleamine 2,3-dioxygenase 1; assay: Ratio of IC50 for human recombinant indoleamine-2,3-dioxygenase expressed in Escherichia coli BL21 to IC50 for indoleamine-2,3-dioxygenase in human HEK293 cells
Target sequence in this assay (P14902 whole entry, looked up): as the sequence (P14902 whole entry) above

[5] = molecular target: T1, Indoleamine 2,3-dioxygenase 1; assay: Uncompetitive inhibition of human recombinant indoleamine-2,3-dioxygenase expressed in Escherichia coli BL21 using L-tryptophan as substrate by Dixon plot analysis
Target sequence in this assay (P14902 whole entry): as above

[6] = molecular target: T1, Indoleamine 2,3-dioxygenase 1; assay: Inhibition of indoleamine-2,3-dioxygenase in human HEK293 cells assessed as N-formylkynurenine level after 5 hrs by spectrophotometric analysis; type: cell-based
Target sequence in this assay (P14902 whole entry): as above

T-cell [7] = assay: Ratio of 1-methyl tryptophan to compound for induction of BALB/c mouse LLC-stimulated T cell proliferation; type: functional

SMILES: COc1ccc(-c2c[nH]nn2)cc1
IC50 ([1]; read-out: IC50): 6000 µM

SMILES: Brc1ccc(-c2nn[nH]n2)cc1
IC50 [1]: Not Active

SMILES: Brc1ccccc1-c1cnn[nH]1
inhibition [2]: Active | Activity (T-cell [3]): Dose-dependent effect | Ratio IC50 [4]: 3

SMILES: c1cncc(-c2c[nH]nn2)c1
IC50 ([1]; read-out: IC50): 708 µM

SMILES: CCOC(=O)c1cn(-c2ccc(Cl)cc2)nn1
IC50 ([1]; read-out: IC50): 2000 µM

SMILES: Clc1ccccc1-c1c[nH]nn1
IC50 ([1]; read-out: IC50): 86 µM | Ki [5]: 14.5 µM | IC50 [6]: 19.3 µM

SMILES: COc1ccccc1-c1c[nH]nn1
IC50 ([1]; read-out: IC50): 1030 µM

SMILES: On1nnc2ccccc21
IC50 [1]: Not Active

SMILES: Brc1ccccc1-c1c[nH]nn1
IC50 ([1]; read-out: IC50): 148 µM | Ki [5]: 18 µM | IC50 [6]: 31.6 µM

SMILES: Brc1nn[nH]c1-c1ccccc1
IC50 [1]: Not Active

SMILES: Clc1ccc(-c2c[nH]nn2)cc1
IC50 ([1]; read-out: IC50): 817 µM

SMILES: Cc1ccc(-c2[nH]nnc2Br)cc1
IC50 ([1]; read-out: IC50): 1030 µM

Continued, in another order:

IC50 ([1]; read-out: IC50): 1370 µM
SMILES: Ic1nn[nH]c1-c1ccccc1

IC50 [1]: Not Active
SMILES: COC(=O)c1ccc(-c2cnn[nH]2)cc1

IC50 [1]: Not Active
SMILES: Cc1ccc(-c2c[nH]nn2)cc1

IC50 ([1]; read-out: IC50): 2570 µM
SMILES: c1ccc2[nH]nnc2c1 [BENZOTRIAZOLE]

inhibition [2]: Active
SMILES: c1ccc(-c2cnn[nH]2)cc1
Activity (T-cell [3]): Dose-dependent effect

inhibition [2]: Active | Ratio IC50 [4]: 3
SMILES: Clc1ccccc1-c1cnn[nH]1
Activity (T-cell [3]): Dose-dependent effect | Ratio (T-cell [7]): 2

IC50 [1]: Not Active
SMILES: Clc1nn[nH]c1-c1ccccc1

IC50 ([1]; read-out: IC50): 1260 µM
SMILES: Brc1ccc(-c2c[nH]nn2)cc1

IC50 ([1]; read-out: IC50): 533 µM
SMILES: O=[N+]([O-])c1ccc(-c2nn[nH]c2[N+](=O)[O-])cc1

IC50 ([1]; read-out: IC50): 580 µM
SMILES: Fc1ccc(-c2c[nH]nn2)cc1
